The target of one experiment is T1, dopamine D3 receptor (Homo sapiens, UniProt P35462).
T1 construct: expressed in transfected cells
The experiment can be described thus: inhibition of spiperone[3H] binding in CHO cells, dopamine D3 receptor. The note with it: read-out: pKi D3 (converted). On the procedure:
(§1) The activity of derivatives of formula 1 as DRD3 ligands, modulators of the activity of DRD3 according to the invention, was evaluated on cells expressing human recombinant DRD3. […] These same compounds show an apparent affinity for the dopamine D2 receptor that is 100 to 500 times weaker. These same compounds have an affinity for the α1 adrenergic receptor that is 20 to 500 times weaker than that for the D3 receptor. The compounds of formula 1 are either antagonists (intrinsic activity<0.10), partial agonists (0.2<intrinsic activity<0.6) or full agonists (intrinsic activity>0.8). The biological results relative to certain compounds of formula 1 are presented in table 2 at the end of the description.

A further experiment has as its target T2, dopamine D2 receptor (Homo sapiens, UniProt P14416).
T2 construct: expressed in transfected cells
Briefly: inhibition of spiperone[3H] binding in CHO cells, dopamine D2 receptor. The conditions noted are these: read-out: pKi D2 (converted). As to the method: as §1

For the next experiment, the target named is T3, human recombinant DRD3 (Homo sapiens, UniProt P35462).
T3 construct: expressed in transfected cells
Briefly: intrinsic activity on cells expressing human recombinant DRD3. Format: cell-based. The conditions noted are these: antagonists <0.10, partial agonists 0.2-0.6, full agonists >0.8.
Excerpt: As used above, the term “D3 receptor partial agonist” denotes a compound that forms a complex with DRD3 and that acts as a combined agonist-antagonist, i.e., it induces a physiological response whose intensity is less than that of the natural mediator, dopamine. In vitro, in a cell expressing DRD3, a DRD3 partial agonist produced an active response whose maximum intensity was lower than that produced by dopamine or a by a full agonist, for example quinpirole[(4aR-trans)-4,4a,5,6,7,8,8a,9 octahydro-5-propyl-1H (or 2H)-pyrazolo(3,4-g)quinoline]. A DRD3 partial agonist can also partially prevent the response produced by dopamine or by its full agonists. In vivo, a DRD3 partial agonist produces dopaminergic responses, particularly when dopamine levels are lowered, as is the case with rats with lesions caused by 6-hydroxydopamine or monkeys injected with 1 methyl-4-phenyl-1,2,3,6-tetrahydropyridine (MPTP). Moreover, a DRD3 partial agonist can act as an antagonist in vivo, particularly when DRD3 is subject to sustained dopamine stimulation.
as §1

Another experiment has as its target α1-adrenergic receptor. The experiment can be described thus: inhibition of prazocine[3H] binding in rat brain tissue. As to the method: as §1

Experimental findings from patent US20100029682A1, “NOVEL CHROMENE AND THIOCHROMENE CARBOXAMIDE DERIVATIVES, METHODS FOR PREPARING SAME AND THERAPEUTIC APPLICATIONS OF SAME” (priority 2006, published 2010) are described below.

T3 sequence (P35462 whole entry): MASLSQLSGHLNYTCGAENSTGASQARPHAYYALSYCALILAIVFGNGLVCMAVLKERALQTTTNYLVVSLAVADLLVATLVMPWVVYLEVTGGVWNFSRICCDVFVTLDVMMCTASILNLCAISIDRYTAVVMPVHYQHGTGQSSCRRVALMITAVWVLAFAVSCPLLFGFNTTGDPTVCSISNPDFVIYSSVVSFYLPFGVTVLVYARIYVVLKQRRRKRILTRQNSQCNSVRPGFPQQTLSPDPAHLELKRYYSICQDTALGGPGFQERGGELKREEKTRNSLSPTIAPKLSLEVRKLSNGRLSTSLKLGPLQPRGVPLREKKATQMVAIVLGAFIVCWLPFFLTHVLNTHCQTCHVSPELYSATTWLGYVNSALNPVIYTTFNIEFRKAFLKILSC
T1 sequence (P35462 whole entry): as above
T2 sequence (P14416 whole entry, species assumed): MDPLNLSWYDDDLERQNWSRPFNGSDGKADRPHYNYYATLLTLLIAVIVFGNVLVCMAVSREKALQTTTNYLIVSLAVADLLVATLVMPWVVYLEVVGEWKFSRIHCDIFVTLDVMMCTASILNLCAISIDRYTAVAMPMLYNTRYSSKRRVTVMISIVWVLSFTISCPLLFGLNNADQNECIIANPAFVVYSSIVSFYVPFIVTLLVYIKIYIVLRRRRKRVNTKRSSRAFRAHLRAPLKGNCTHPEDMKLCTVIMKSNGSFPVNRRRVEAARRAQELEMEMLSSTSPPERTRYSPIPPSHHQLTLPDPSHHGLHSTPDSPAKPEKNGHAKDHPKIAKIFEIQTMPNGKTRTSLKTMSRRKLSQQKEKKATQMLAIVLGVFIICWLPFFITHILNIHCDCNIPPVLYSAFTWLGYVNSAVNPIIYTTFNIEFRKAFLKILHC

As for `O=C(NCCCCN1CCN(c2cccc3[nH]c(=O)oc23)CC1)C1=Cc2ccccc2OC1` [Example 110, 2H-chromene-3-carboxylic acid {4-[4-(2-oxo-2,3-dihydro-benzoxazol-7-yl)-piperazin-1-yl]-butyl}-amide], the Ki was 0.0676 nM at dopamine D3 receptor and 7.59 nM at dopamine D2 receptor. For the same compound, the Intrinsic activity on human recombinant DRD3 is reported as 0.81. Moreover, on α1-adrenergic receptor, the “pKi α1” value was 8.44.

For `O=C(NCCCCN1CCN(c2cccc3c2OCC3)CC1)C1=Cc2ccccc2OC1` [Example 111, 2H-chromene-3-carboxylic acid {4-[4-(2,3-dihydro-benzofuran-7-yl)-piperazin-1-yl]-butyl} amide], the results for the Ki at dopamine D3 receptor and on dopamine D2 receptor were 0.676 nM and 141 nM, respectively. The Intrinsic activity on human recombinant DRD3 was determined as 0.26. For the same compound, at α1-adrenergic receptor, the “pKi α1” value is reported as 7.84.
